Legend:
human mGlu5 receptor = biological target: T1, human mGlu5 receptor (Homo sapiens, UniProt P41594); experiment: Functional in vitro activity at human mGlu5 receptor (FLIPR calcium, potentiator mode); assay type: cell-based; conditions: AV-12 cells expressing human mGlu5, glutamate EC10, relative EC50
T1 construct: expressed in transfected cells
Experimental: An AV-12 cell line stably expressing the human mGlu5 receptor and co-transfected with the rat glutamate transporter EAAT 1 (Excitatory Amino Acid Transporter 1) are used for these studies (see for example Desai, Burnett, Mayne, Schoepp, Mol. Pharmacol. 48, 648-657, 1995). The cell line is maintained by culturing in Dulbecco's Modified Eagle's Medium (DMEM) with high glucose and pyridoxine hydrochloride supplemented with 5% heat inactivated, dialyzed fetal bovine serum, 1 mM sodium pyruvate, 10 mM HEPES (4-(2-hydroxyethyl)-1-piperazineethanesulfonic acid), 1 mM of L-glutamine, 0.75 mg/ml geneticin and 0.3 mg/ml hygromycin. Sub-confluent cultures are passaged twice per week using 0.25% trypsin-EDTA. […]
Intracellular calcium levels are monitored before and after the addition of compounds using a Fluorometric Imaging Plate Reader (FLIPR, Molecular Devices, Union City, Calif. USA). […] The results are analyzed using (GraphPad® Prism v4, Graphpad Software, LaJolla, Calif., USA) to calculate the concentrations of glutamate needed to induce the EC10 responses.
Compounds are tested in a two-addition FLIPR assay using a 10-point concentration response profile starting at a final concentration of 25 μM (agonist mode) or 12.5 μM (potentiator mode). […] After taking an initial 5-sec fluorescent read on the FLIPR instrument, compound is added to the cell plate (50 ul per well). […]

Male Lister hooded rats = experiment: Delayed matching to position task (DMTP) in rats, deficit induced by NMDA antagonist SDZ 220,581; assay type: in vivo, rat
Description: The delayed matching to position task (DMTP) has been used to study working memory in rats. Working memory in this context is the retention and use of information that is available only during an individual trial. The study of compounds which modulate NMDA receptors in DMTP has been used to identify the importance of NMDA receptors in learning and memory. More specifically, studies have shown competitive NMDA antagonists to induce impairment of DMTP in rats. Compounds which show a positive effect in attenuating deficits induced by competitive NMDA antagonists in rats are believed to be useful in treating cognitive disorders in humans.
Male Lister hooded rats are housed in groups of 4 and are maintained on a food-restricted diet and a 12-hour light dark cycle. The experiments are conducted during the same part of the light phase each day.
Standard operant chambers, housed in sound and light attenuating chambers are used. Each chamber comprised a house light, two retractable levers, each with a stimulus light above it. The levers are located either side of a recessed magazine where food pellets are delivered from an automatic pellet dispenser. Start of a session is signaled by onset of the house light, and its permanent offset indicated the end of a session. Experimental sessions are controlled and data is recorded and analyzed.
Sample Phase. A trial begins with a one of the levers extending into the chamber. The stimulus light above the lever is illuminated. If the lever is pressed, it is retracted and the stimulus light extinguished. This initiates the pseudo-randomly selected delay period of 1, 2, 4, 8 or 16 seconds during training or 1, 12, or 32 seconds during test.
Head Entry. After this delay period is complete, animals are required to make a head entry into the food hopper within 10 seconds, if an appropriate response is made both levers are extended into the chamber. If no response is made during this period, the house-light is extinguished and the trial counted as an omission.
Choice Phase. If animals make the appropriate head entry response and the levers extended into the operant chamber, they have 10 seconds which to make their response. A correct response consists of an animal pressing the same lever that is extended into the chamber during the sample phase. This response results in both levers retracting and a single food pellet being delivered into the food hopper. After a 5 second inter-trial interval the next trial begins. Following an incorrect response, (the animal pressing the opposite lever as had been extended during the sample phase), both levers retract and the house-light is extinguished signaling the end of that trial. After a 5 second time out the next trial begins, signaled by onset of the house-light. If the animal fails to respond within 10 second during the choice phase, the levers retract, the house-light extinguishes and the trial is recorded as an omission.
Overall Session. Each session is terminated after 75 trials (15 pseudo-random presentations of each delay period). Animals are trained to a criterion of greater than 70% accuracy over the entire session with less than 10% omissions of responding. After criterion is reached, rats are trained two times a week in a baseline condition and once a week in a test condition.
Test Compounds. A compound of the present invention stock of 1.0 mg/ml is prepared. For example, 18.7 mg of the compound of Example 11 is weighed and suspended in 18.7 ml vehicle (1% high viscocity cmc, 0.25% tween, 0.05% antifoam). A white suspension is formed. Test compound is administered orally, 60 minutes prior to the start of a session, in a volume of 1 ml/kg.
NMDA antagonist stock, 2.0 mg/ml: […] of SDZ 220,581 is weighed and dissolved in 16.73 ml vehicle (0.09 ml 1M NaOH, made up to volume with 5% glucose). A solution is formed and at a pH 6.5 at time of injection. SDZ 220,581 is administered subcutaneously, 30 minutes prior to the start of a session, in a volume of 1 ml/kg. […]

[1] = Example 11/V: Example 11 1 mg/kg orally 60 min prior, vehicle instead of SDZ

T1 sequence (P41594 21-1212): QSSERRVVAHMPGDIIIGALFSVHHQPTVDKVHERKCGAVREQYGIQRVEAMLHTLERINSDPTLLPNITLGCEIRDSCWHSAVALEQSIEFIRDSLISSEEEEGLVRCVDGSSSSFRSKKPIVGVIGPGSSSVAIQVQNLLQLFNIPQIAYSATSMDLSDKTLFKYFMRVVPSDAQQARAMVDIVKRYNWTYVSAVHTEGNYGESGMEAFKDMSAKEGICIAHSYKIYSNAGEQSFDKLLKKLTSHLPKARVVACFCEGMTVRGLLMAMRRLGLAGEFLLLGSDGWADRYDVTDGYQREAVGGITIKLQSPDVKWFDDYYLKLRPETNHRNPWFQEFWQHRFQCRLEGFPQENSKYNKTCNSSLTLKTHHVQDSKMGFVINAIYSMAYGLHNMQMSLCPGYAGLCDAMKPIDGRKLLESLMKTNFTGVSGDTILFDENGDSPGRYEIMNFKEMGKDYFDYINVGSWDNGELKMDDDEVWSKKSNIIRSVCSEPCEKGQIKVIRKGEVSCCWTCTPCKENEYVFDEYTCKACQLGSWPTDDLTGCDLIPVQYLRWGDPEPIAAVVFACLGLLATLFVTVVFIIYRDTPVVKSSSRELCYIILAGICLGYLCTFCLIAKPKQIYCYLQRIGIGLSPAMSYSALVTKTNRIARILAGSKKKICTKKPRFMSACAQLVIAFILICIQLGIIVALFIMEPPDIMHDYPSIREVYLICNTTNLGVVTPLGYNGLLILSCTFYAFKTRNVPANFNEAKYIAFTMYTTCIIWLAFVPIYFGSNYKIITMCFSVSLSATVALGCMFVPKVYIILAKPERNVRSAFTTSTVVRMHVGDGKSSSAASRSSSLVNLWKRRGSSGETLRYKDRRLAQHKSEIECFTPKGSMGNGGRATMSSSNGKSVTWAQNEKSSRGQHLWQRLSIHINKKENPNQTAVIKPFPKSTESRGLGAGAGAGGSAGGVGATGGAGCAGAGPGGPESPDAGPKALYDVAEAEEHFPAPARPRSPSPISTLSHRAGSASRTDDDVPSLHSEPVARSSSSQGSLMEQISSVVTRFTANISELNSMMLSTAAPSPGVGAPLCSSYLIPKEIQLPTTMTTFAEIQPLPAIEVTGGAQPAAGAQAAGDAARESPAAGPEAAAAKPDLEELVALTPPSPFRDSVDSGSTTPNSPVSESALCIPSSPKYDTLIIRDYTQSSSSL

Row | EC50 (human mGlu5 receptor) | Compound | Trials Completed (Male Lister hooded rats; Example 11/SDZ: Example 11 1 mg/kg orally 60 min prior plus SDZ 220,581 subcutaneously 30 min prior) | % Accuracy (Male Lister hooded rats; [1]) | % Omissions (Male Lister hooded rats; [1]) | Average Correct latency (Male Lister hooded rats; [1]) | Average Incorrect latency (Male Lister hooded rats; [1]) | Head Entries (Male Lister hooded rats; [1]) | Sample latency (Male Lister hooded rats; [1]) | Trials Completed (Male Lister hooded rats; [1]) | deficits induced by SDZ-220,581 in the delayed matching to position assay of working memory (Male Lister hooded rats; concurrent treatment with 1 mg/kg Example 11)
1 | 120 ± 47 nM | CC(C)(C)c1nnc2n1CCC(c1nc(-c3ccc(F)cc3)no1)C2 (racemic) [Example 1, 3-tert-butyl-7-[3-(4-fluorophenyl)-1,2,4-oxadiazol-5-yl]-5,6,7,8-tetrahydro[1,2,4]triazolo[4,3-a]pyridine] | – | – | – | – | – | – | – | – | –
2 | 36 ± 3.5 nM | CC(C)(C)c1nnc2n1CC[C@H](c1nc(-c3ccc(F)cc3)no1)C2 (single isomer, unassigned) [Example 11] | 72 ± 2 | 75.6 ± 1.6% | 1.2 ± 0.4% | 0.94 ± 0.05 s | 0.98 ± 0.08 s | 2092 ± 83 | 1.84 ± 0.22 s | 75 ± 0 | attenuated all deficits

From US8592590B2, “Tetrahydrotriazolopyridine compounds as selective MGLU5 receptor potentiators useful for the treatment of schizophrenia” (Eli Lilly and Company, priority 2009, dated 2013)
